The series in a line: Solubility in water. The conditions noted are these: Table 6, PEGylated PA peptides. In kind it is physicochemical.
Consider `CC[C@H](C)[C@H](N)C(=O)N[C@@H](C)C(=O)N[C@@H](CC(C)C)C(=O)N[C@H](C(=O)N[C@@H](CC(C)C)C(=O)N[C@@H](CCC(=O)O)C(=O)N1CCC[C@H]1C(=O)N[C@H](C(=O)N[C@@H](CS)C(=O)N[C@@H](CS)C(=O)N[C@@H](CCC(N)=O)C(=O)N[C@@H](CCC(=O)O)C(=O)N[C@@H](CCCNC(=N)N)C(=O)N[C@@H](C)C(=O)N[C@@H](C)C(=O)NCCOCCOCCC(=O)O)[C@@H](C)CC)[C@@H](C)CC` [PA-dPEG02], for which the Solubility in water entry is “Yes”.

As for `CC[C@H](C)[C@H](N)C(=O)N[C@@H](C)C(=O)N[C@@H](CC(C)C)C(=O)N[C@H](C(=O)N[C@@H](CC(C)C)C(=O)N[C@@H](CCC(=O)O)C(=O)N1CCC[C@H]1C(=O)N[C@H](C(=O)N[C@@H](CS)C(=O)N[C@@H](CS)C(=O)N[C@@H](CCC(N)=O)C(=O)N[C@@H](CCC(=O)O)C(=O)N[C@@H](CCCNC(=N)N)C(=O)N[C@@H](C)C(=O)N[C@@H](C)C(=O)NCCOCCOCCOCCC(=O)O)[C@@H](C)CC)[C@@H](C)CC` [PA-dPEG03], the Solubility in water result is given as “Yes”.

With `CC[C@H](C)[C@H](N)C(=O)N[C@@H](C)C(=O)N[C@@H](CC(C)C)C(=O)N[C@H](C(=O)N[C@@H](CC(C)C)C(=O)N[C@@H](CCC(=O)O)C(=O)N1CCC[C@H]1C(=O)N[C@H](C(=O)N[C@@H](CS)C(=O)N[C@@H](CS)C(=O)N[C@@H](CCC(N)=O)C(=O)N[C@@H](CCC(=O)O)C(=O)N[C@@H](CCCNC(=N)N)C(=O)N[C@@H](C)C(=O)N[C@@H](C)C(=O)NCCOCCOCCOCCOCCC(=O)O)[C@@H](C)CC)[C@@H](C)CC` [PA-dPEG04], the Solubility in water entry was “Yes”.

With `CC[C@H](C)[C@H](N)C(=O)N[C@@H](C)C(=O)N[C@@H](CC(C)C)C(=O)N[C@H](C(=O)N[C@@H](CC(C)C)C(=O)N[C@@H](CCC(=O)O)C(=O)N1CCC[C@H]1C(=O)N[C@H](C(=O)N[C@@H](CS)C(=O)N[C@@H](CS)C(=O)N[C@@H](CCC(N)=O)C(=O)N[C@@H](CCC(=O)O)C(=O)N[C@@H](CCCNC(=N)N)C(=O)N[C@@H](C)C(=O)N[C@@H](C)C(=O)NCCOCCOCCOCCOCCOCCOCCC(=O)O)[C@@H](C)CC)[C@@H](C)CC` [PA-dPEG06], the Solubility in water entry is given as “No”.

On to `CC[C@H](C)[C@H](N)C(=O)N[C@@H](C)C(=O)N[C@@H](CC(C)C)C(=O)N[C@H](C(=O)N[C@@H](CC(C)C)C(=O)N[C@@H](CCC(=O)O)C(=O)N1CCC[C@H]1C(=O)N[C@H](C(=O)N[C@@H](CS)C(=O)N[C@@H](CS)C(=O)N[C@@H](CCC(N)=O)C(=O)N[C@@H](CCC(=O)O)C(=O)N[C@@H](CCCNC(=N)N)C(=O)N[C@@H](C)C(=O)N[C@@H](C)C(=O)NCCOCCOCCOCCOCCOCCOCCOCCOCCC(=O)O)[C@@H](C)CC)[C@@H](C)CC` [PA-dPEG08], for which the Solubility in water entry is on record as “Yes”.

On to `CC[C@H](C)[C@H](N)C(=O)N[C@@H](C)C(=O)N[C@@H](CC(C)C)C(=O)N[C@H](C(=O)N[C@@H](CC(C)C)C(=O)N[C@@H](CCC(=O)O)C(=O)N1CCC[C@H]1C(=O)N[C@H](C(=O)N[C@@H](CS)C(=O)N[C@@H](CS)C(=O)N[C@@H](CCC(N)=O)C(=O)N[C@@H](CCC(=O)O)C(=O)N[C@@H](CCCNC(=N)N)C(=O)N[C@@H](C)C(=O)N[C@@H](C)C(=O)NCCOCCOCCOCCOCCOCCOCCOCCOCCOCCOCCOCCOCCC(=O)O)[C@@H](C)CC)[C@@H](C)CC` [PA-dPEG12], for which the Solubility in water entry is “Yes”.

Regarding `CC[C@H](C)[C@H](N)C(=O)N[C@@H](C)C(=O)N[C@@H](CC(C)C)C(=O)N[C@H](C(=O)N[C@@H](CC(C)C)C(=O)N[C@@H](CCC(=O)O)C(=O)N1CCC[C@H]1C(=O)N[C@H](C(=O)N[C@@H](CS)C(=O)N[C@@H](CS)C(=O)N[C@@H](CCC(N)=O)C(=O)N[C@@H](CCC(=O)O)C(=O)N[C@@H](CCCNC(=N)N)C(=O)N[C@@H](C)C(=O)N[C@@H](C)C(=O)NCCOCCOCCOCCOCCOCCOCCOCCOCCOCCOCCOCCOCCOCCOCCOCCOCCC(=O)O)[C@@H](C)CC)[C@@H](C)CC` [PA-dPEG16], the Solubility in water result is reported as “Yes”.

These data come from patent publication US10005818B2, “Derivative peptide compounds and methods of use” (REALTA HOLDINGS, LLC, priority 2010, dated 2018).
